These results are taken from patent publication US11813306B2, “Cyclic tetramer compounds as proprotein convertase subtilisin/kexin type 9 (PCSK9) inhibitors for the treatment of metabolic disorders” (NOVARTIS AG, priority 2018, dated 2023).

This assay deals with human PCSK9 (Homo sapiens, UniProt Q8NBP7). In words: PCSK9 ligand binding assay (TR-FRET): interference with binding of human PCSK9 to human LDLR. The conditions noted are these: for IC50: Human PCSK9 Alexa Fluor 647 / Human LDLR extracellular domain-Europium Kryptate; for Max % inhibition: efficacy (Amax), 100% = 1 uM unlabeled human PCSK9, 0% = DMSO. The method, then: Example 10: PCSK9 Ligand Binding Assay
The PCSK9 binding of the compounds of the disclosure were measured using a time resolved fluorescence resonance energy transfer (TR-FRET) assay. This time resolved fluorescence resonance energy transfer (TR-FRET) assay measures the ability of a compound of the present disclosure to interfere with the binding of human PCSK9 to human LDLR, providing measures of both potency (IC50) and efficacy (Amax).
Human PCSK9 Alexa Fluor 647
Human LDLR extracellular domain-Europium Kryptate
Proxi plate-low volume assay plate (PerkinElmer #6008280)
Greiner V-bottom (Greiner BioOne #781280)
Assay Buffer • 20 mM HEPES, pH 7.5 • 150 mM NaCl • 1 mM CaCl2 • 0.01% v/v Tween20 • 0.01% w/v BSA
A master compound plate was prepared in a Greiner V bottom plate by diluting compounds of the disclosure in dimethylsulfoxide to the correct concentration for the desired top concentration based on the desired final concentration: for a 30 uM final concentration the master plate concentration is 1.5 mM (68 uL DMSO+12 uL 10 mM of a compound of the disclosure), for a 10 uM final concentration the master plate concentration is 0.5 mM (76 uL DMSO+4 uL 10 mM of a compound of the disclosure), for a 3 uM final concentration the master plate concentration is 150 uM (69 uL DMSO+1 uL 10 mM of a compound of the disclosure). These solutions were pipetted into columns 1 and 11 of the compound plate. Threefold serial dilutions were generated in columns 2-10 and 12-20 of the compound plate by transferring 10 uL into 20 uL of DMSO. Columns 21 and 22 of the compound plate were negative controls containing DMSO alone.
An intermediate plate was generated in a Greiner V bottom plate by transferring 8 uL from each well of the master plate into a corresponding well containing 92 uL of assay buffer and mixing thoroughly.
A Proxi plate-low volume assay plate was used for the assay. To all wells of the plate was added 10 uL of 16 nM Human PCSK9 Alexa Fluor 647, followed by 5 uL from the intermediate plate. For the positive control wells in columns 23 and 24 of the plate, 5 uL of unlabeled human PCSK9 was added at 4 uM in assay buffer containing 8% DMSO. Following a 30 minute incubation, 5 uL of 4 nM Human LDLR extracellular domain-Europium Kryptate was added and the mixture was incubated for an additional 2 hours.
The TR-FRET signal was measured on an EnVision or PheraStar instrument with a 60 ms delay, 330 nm excitation and 665 nm emission (FRET), and 330 nm excitation and 615 nm (Europium). The FRET ratio (FRET/Europium) was used for calculations.
No inhibition (0%) was observed from the wells containing DMSO (Control) in columns 21 and 22 of the compound plate. Full inhibition (100%) was observed from the wells containing 1 uM human PCSK9 (Control) in columns 23 and 24 of the plate. Data is expressed as percent inhibition: (value—0%)/(100%-0%).
On the technique in general: TR-FRET usually uses a lanthanide donor and a delayed reading to cut background.

human PCSK9, sequence (Q8NBP7 153-692): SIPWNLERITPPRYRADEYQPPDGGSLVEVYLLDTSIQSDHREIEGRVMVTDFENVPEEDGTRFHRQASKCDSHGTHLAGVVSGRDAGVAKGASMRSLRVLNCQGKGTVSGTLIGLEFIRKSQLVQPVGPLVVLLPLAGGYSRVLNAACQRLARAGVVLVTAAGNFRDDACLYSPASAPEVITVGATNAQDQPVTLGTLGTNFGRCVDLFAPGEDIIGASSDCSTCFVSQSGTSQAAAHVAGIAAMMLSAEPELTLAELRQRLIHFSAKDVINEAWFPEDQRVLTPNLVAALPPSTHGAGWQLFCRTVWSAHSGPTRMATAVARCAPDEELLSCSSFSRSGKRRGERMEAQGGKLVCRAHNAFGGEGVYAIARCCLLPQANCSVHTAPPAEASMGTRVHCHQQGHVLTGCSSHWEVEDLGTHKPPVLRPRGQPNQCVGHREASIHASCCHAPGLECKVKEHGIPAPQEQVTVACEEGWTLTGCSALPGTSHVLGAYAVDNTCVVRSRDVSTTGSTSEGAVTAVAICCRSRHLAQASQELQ
human PCSK9, sequence (Q8NBP7 31-152 partner limits assumed): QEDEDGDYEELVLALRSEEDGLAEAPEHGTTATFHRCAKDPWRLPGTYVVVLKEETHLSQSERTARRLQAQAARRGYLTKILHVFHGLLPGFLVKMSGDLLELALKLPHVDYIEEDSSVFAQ

For the compound `C[C@H]1C(=O)N[C@@H](CO)C(=O)N[C@@]2(Cc3ccc(Cl)cc3)CCCN(C2)C(=O)[C@H](Cc2ccccn2)CC(=O)N1Cc1ccc(Cl)cc1Oc1ccc(-c2cnc(CN3CCCC3)n2C)cc1` [Compound 1, (3R,7S,10S,13R)-6-(4-Chloro-2-(4-(1-methyl-2-(pyrrolidin-1-ylmethyl)-1H-imidazol-5-yl)phenoxy)benzyl)-13-(4-chlorobenzyl)-10-(hydroxymethyl)-7-methyl-3-(pyridin-2-ylmethyl)-1,6,9,12-tetraazabicyclo[11.3.1]heptadecane-2,5,8,11-tetraone], the concentration for half-maximal inhibition (IC50) – broadly, the concentration that gives 50% inhibition – is 0.562 nM and the Max % inhibition was 103.2%.
`COC[C@@H]1NC(=O)[C@H](C)N(Cc2ccc(Cl)cc2Oc2ccc(-c3cnc(CN(C)C)n3C)cc2)C(=O)C[C@@H](CC(F)(F)F)C(=O)N2CCC[C@@](Cc3ccc(Cl)cc3)(C2)NC1=O` [Compound 2, (3S, 7S, 10S, 13R)-6-(4-chloro-2-(4-(2-((dimethylamino)methyl)-1-methyl-1H-imidazol-5-yl)phenoxy)benzyl)-13-(4-chlorobenzyl)-10-(methoxymethyl)-7-methyl-3-(2,2,2-trifluoroethyl)-1,6,9,12-tetraazabicyclo[11.3.1]heptadecane-2,5,8,11-tetraone]: the IC50 is 0.847 nM and the Max % inhibition amounted to 112.5%.
`COC[C@@H]1NC(=O)[C@H](C)N(Cc2c(F)cc(Cl)cc2Oc2ccc(-c3cnc(CN(C)C)n3C)cc2)C(=O)C[C@@H](Cc2cccc[n+]2[O-])C(=O)N2CCC[C@@](Cc3ccc(Cl)cc3)(C2)N(C)C1=O` [Compound 3, 2-(((3R, 7S, 10S, 13R)-6-(4-chloro-2-(4-(2-((dimethylamino)methyl)-1-methyl-1H-imidazol-5-yl)phenoxy)-6-fluorobenzyl)-13-(4-chlorobenzyl)-10-(methoxymethyl)-7,12-dimethyl-2,5,8,11-tetraoxo-1,6,9,12-tetraazabicyclo[11.3.1]heptadecan-3-yl)methyl)pyridine 1-oxide]: the IC50 amounted to 0.452 nM and the Max % inhibition was found to be 113.9%.
`COC[C@@H]1NC(=O)[C@H](C)N(Cc2ccc(Cl)cc2Oc2ccc(-c3cnc(CN(C)C)n3C)cc2)C(=O)C[C@@H](Cc2cccc(C)n2)C(=O)N2CCC[C@@](Cc3ccc(Cl)cc3)(C2)NC1=O` [Compound 4, (3R,7S,10S,13R)-6-(4-Chloro-2-(4-(2-((dimethylamino)methyl)-1-methyl-1H-imidazol-5-yl)phenoxy)benzyl)-13-(4-chlorobenzyl)-10-(methoxymethyl)-7-methyl-3-((6-methylpyridin-2-yl)methyl)-1,6,9,12-tetraazabicyclo[11.3.1]heptadecane-2,5,8,11-tetraone]: the IC50 amounted to 0.558 nM and the Max % inhibition came out at 106.4%.
For the compound `C[C@H]1C(=O)N[C@@H](CO)C(=O)N[C@@]2(Cc3ccc(Cl)cc3)CCCN(C2)C(=O)[C@H](CC(F)(F)F)CC(=O)N1Cc1c(F)cc(Cl)cc1Oc1ccc(-c2cnc(CNC3CCC3)n2C)cc1` [Compound 5, (3S, 7S, 10S, 13R)-6-(4-chloro-2-(4-(2-((cyclobutylamino)methyl)-1-methyl-1H-imidazol-5-yl)phenoxy)-6-fluorobenzyl)-13-(4-chlorobenzyl)-10-(hydroxymethyl)-7-methyl-3-(2,2,2-trifluoroethyl)-1,6,9,12-tetraazabicyclo[11.3.1]heptadecane-2,5,8,11-tetraone], the IC50 was 0.4 nM and the Max % inhibition was 101.9%.
For the compound `COC[C@@H]1NC(=O)[C@H](C)N(Cc2ccc(Cl)cc2Oc2ccc(-c3cnc(CNC(C)(C)C)n3C)cc2)C(=O)C[C@@H](CC(F)(F)F)C(=O)N2CCC[C@@](Cc3ccc(Cl)cc3)(C2)NC1=O` [Compound 6, (3S, 7S, 10S, 13R)-6-(2-(4-(2-((tert-butylamino)methyl)-1-methyl-1H-imidazol-5-yl)phenoxy)-4-chlorobenzyl)-13-(4-chlorobenzyl)-10-(methoxymethyl)-7-methyl-3-(2,2,2-trifluoroethyl)-1,6,9,12-tetraazabicyclo[11.3.1]heptadecane-2,5,8,11-tetraone], the 50% inhibitory concentration (IC50) worked out at 0.956 nM and the Max % inhibition was found to be 119.9%.
Take `Cc1c(CN(C)C)ncn1-c1ccc(Oc2cc(Cl)ccc2CN2C(=O)C[C@@H]([C@@H]3CCc4ccccc43)C(=O)N3CCC[C@@](Cc4ccc(Cl)cc4)(C3)NC(=O)[C@H](CO)NC(=O)[C@@H]2C)cc1` [Compound 7, (3S, 7S, 10S, 13R)-6-(4-chloro-2-(4-(4-((dimethylamino)methyl)-5-methyl-1H-imidazol-1-yl)phenoxy)benzyl)-13-(4-chlorobenzyl)-3-((S)-2,3-dihydro-1H-inden-1-yl)-10-(hydroxymethyl)-7-methyl-1,6,9,12-tetraazabicyclo[11.3.1]heptadecane-2,5,8,11-tetraone]: the IC50 worked out at 0.401 nM and the Max % inhibition is reported as 107.3%.
As for `COC[C@@H]1NC(=O)[C@H](C)N(Cc2c(F)cc(Cl)cc2Oc2ccc(-c3cnc(CN(C)C)n3C)nc2)C(=O)C[C@@H](CC(F)(F)F)C(=O)N2CCC[C@@](Cc3ccc(Cl)cc3)(C2)NC1=O` [Compound 8], the half-maximal inhibitory concentration (IC50) was found to be 0.465 nM and the Max % inhibition stood at 104.7%.
As for `COC[C@@H]1NC(=O)[C@H](C)N(Cc2ccc(Cl)cc2Oc2ccc(-c3cnc(CN(C)C)n3C)cc2)C(=O)C[C@@H](CC(F)(F)F)C(=O)N2CCC[C@@](Cc3ccc(Cl)cc3)(C2)N(C)C1=O` [Compound 9, (3S, 7S, 10S, 13R)-6-(4-chloro-2-(4-(2-((dimethylamino)methyl)-1-methyl-1H-imidazol-5-yl)phenoxy)benzyl)-13-(4-chlorobenzyl)-10-(methoxymethyl)-7,12-dimethyl-3-(2,2,2-trifluoroethyl)-1,6,9,12-tetraazabicyclo[11.3.1]heptadecane-2,5,8,11-tetraone], the IC50 was found to be 0.22 nM and the Max % inhibition is on record as 111.3%.
`C[C@H]1C(=O)N[C@@H](CO)C(=O)N[C@@]2(Cc3ccc(Cl)cc3)CCCN(C2)C(=O)[C@H](CC2CC2)CC(=O)N1Cc1c(F)cc(Cl)cc1Oc1ccc(-c2cnc(CN3CCCC3)n2C)cc1` [Compound 10, (3R, 7S, 10S, 13R)-6-(4-chloro-2-fluoro-6-(4-(1-methyl-2-(pyrrolidin-1-ylmethyl)-1H-imidazol-5-yl)phenoxy)benzyl)-13-(4-chlorobenzyl)-3-(cyclopropylmethyl)-10-(hydroxymethyl)-7-methyl-1,6,9,12-tetraazabicyclo[11.3.1]heptadecane-2,5,8,11-tetraone]: the IC50 turned out to be 0.152 nM and the Max % inhibition was 115.5%.
With `C[C@H]1C(=O)N[C@@H](CO)C(=O)N[C@@]2(Cc3ccc(Cl)cc3)CCCN(C2)C(=O)[C@H](Cc2ccccc2)CC(=O)N1Cc1c(F)cc(Cl)cc1Oc1ccc(-c2cnc(CN(C)C)n2C)cc1` [Compound 11, (3R, 7S, 10S, 13R)-3-benzyl-6-(4-chloro-2-(4-(2-((dimethylamino)methyl)-1-methyl-1H-imidazol-5-yl)phenoxy)-6-fluorobenzyl)-13-(4-chlorobenzyl)-10-(hydroxymethyl)-7-methyl-1,6,9,12-tetraazabicyclo[11.3.11]-heptadecane-2,5,8,11-tetraone], the IC50 worked out at 0.351 nM and the Max % inhibition was 110.0%.
For the compound `COC[C@@H]1NC(=O)[C@H](C)N(Cc2ccc(Cl)cc2Oc2ccc(-c3cnc(CN(C)C)n3C)nc2)C(=O)C[C@@H](CC(F)(F)F)C(=O)N2CCC[C@@](Cc3ccc(Cl)cc3)(C2)N(C)C1=O` [Compound 12, (3S, 7S, 10S, 13R)-6-(4-chloro-2-((6-(2-((dimethylamino)methyl)-1-methyl-1H-imidazol-5-yl)pyridin-3-yl)oxy)benzyl)-13-(4-chlorobenzyl)-10-(methoxymethyl)-7,12-dimethyl-3-(2,2,2-trifluoroethyl)-1,6,9,12-tetraazabicyclo[11.3.1]heptadecane-2,5,8,11-tetraone], the IC50 came out at 0.152 nM and the Max % inhibition came out at 112.8%.
On to `COC[C@@H]1NC(=O)[C@H](C)N(Cc2c(F)cc(Cl)cc2Oc2ccc(-c3cnc(CN4CCCC4)n3C)cc2)C(=O)C[C@@H](Cc2cccc(C)n2)C(=O)N2CCC[C@@](Cc3ccc(Cl)cc3)(C2)N(C)C1=O` [Compound 14], for which the half-inhibitory concentration (IC50) stood at 0.632 nM and the Max % inhibition is recorded as 102.7%.
